ChEMBL document CHEMBL5724914, “Linking interpersonal differences in gut microbiota composition and drug biotransformation activity” (2024)

Assays:
[1] = human gut metagenome, 24 h, 2 µM
[2] = human gut metagenome, 24 h, 2 µM; remark: listed apart in the source
[3] = The drug is tested on Z-010 corresponding to metagenome with ENA study accession number: PRJEB37062 and ENA sample accession number: ERS12561810 for biotransformation under anaerobic condition. The drug concentrations were measured over 9 timepoints collected between 0 and 24 hours of incubation by liquid-chromatography-coupled mass spectrometry (LC–MS); details: 2 µM
[4] = The drug is tested on Z-008 corresponding to metagenome with ENA study accession number: PRJEB37062 and ENA sample accession number: ERS12561808 for biotransformation under anaerobic condition. The drug concentrations were measured over 9 timepoints collected between 0 and 24 hours of incubation by liquid-chromatography-coupled mass spectrometry (LC–MS); details: 2 µM
[5] = The drug is tested on WLS-007 corresponding to human gut metagenome with ENA study accession number: PRJEB37062 and ENA sample accession number: ERS12561742 for biotransformation under anaerobic condition. The drug concentrations were measured over 9 timepoints collected between 0 and 24 hours of incubation by liquid-chromatography-coupled mass spectrometry (LC–MS); details: 2 µM
[6] = human gut metagenome, 24 h, 2 µM; remark: listed apart in the source
[7] = human gut metagenome, 24 h, 2 µM; remark: listed apart in the source
[8] = human gut metagenome, 24 h, 2 µM; remark: listed apart in the source
[9] = The drug is tested on WLS-038 corresponding to human gut metagenome with ENA study accession number: PRJEB37062 and ENA sample accession number: ERS12561745 for biotransformation under anaerobic condition. The drug concentrations were measured over 9 timepoints collected between 0 and 24 hours of incubation by liquid-chromatography-coupled mass spectrometry (LC–MS); details: 2 µM
[10] = The drug is tested on WLS-310 corresponding to human gut metagenome with ENA study accession number: PRJEB37062 and ENA sample accession number: ERS12561785 for biotransformation under anaerobic condition. The drug concentrations were measured over 9 timepoints collected between 0 and 24 hours of incubation by liquid-chromatography-coupled mass spectrometry (LC–MS); details: 2 µM
[11] = The drug is tested on Z-013 corresponding to rabbit gut metagenome with ENA study accession number: PRJEB37062 and ENA sample accession number: ERS12561813 for biotransformation under anaerobic condition. The drug concentrations were measured over 9 timepoints collected between 0 and 24 hours of incubation by liquid-chromatography-coupled mass spectrometry (LC–MS); details: 2 µM
[12] = human gut metagenome, 24 h, 2 µM; remark: listed apart in the source
[13] = human gut metagenome, 24 h, 2 µM; remark: listed apart in the source
[14] = human gut metagenome, 24 h, 2 µM; remark: listed apart in the source
[15] = The drug is tested on WLS-090 corresponding to human gut metagenome with ENA study accession number: PRJEB37062 and ENA sample accession number: ERS12561753 for biotransformation under anaerobic condition. The drug concentrations were measured over 9 timepoints collected between 0 and 24 hours of incubation by liquid-chromatography-coupled mass spectrometry (LC–MS); details: 2 µM
[16] = The drug is tested on WLS-039 corresponding to human gut metagenome with ENA study accession number: PRJEB37062 and ENA sample accession number: ERS12561746 for biotransformation under anaerobic condition. The drug concentrations were measured over 9 timepoints collected between 0 and 24 hours of incubation by liquid-chromatography-coupled mass spectrometry (LC–MS); details: 2 µM
[17] = The drug is tested on Z-023 corresponding to metagenome with ENA study accession number: PRJEB37062 and ENA sample accession number: ERS12561822 for biotransformation under anaerobic condition. The drug concentrations were measured over 9 timepoints collected between 0 and 24 hours of incubation by liquid-chromatography-coupled mass spectrometry (LC–MS); details: 2 µM
[18] = human gut metagenome, 24 h, 2 µM; remark: listed apart in the source
[19] = human gut metagenome, 24 h, 2 µM; remark: listed apart in the source
[20] = human gut metagenome, 24 h, 2 µM; remark: listed apart in the source
Also: call rule not given here.

| SMILES | Bacterial Biotransformation [1] | Bacterial Biotransformation [2] | Bacterial Biotransformation [3] | Bacterial Biotransformation [4] | Bacterial Biotransformation [5] | Bacterial Biotransformation [6] | Bacterial Biotransformation [7] | Bacterial Biotransformation [8] | Bacterial Biotransformation [9] | Bacterial Biotransformation [10] | Bacterial Biotransformation [11] | Bacterial Biotransformation [12] | Bacterial Biotransformation [13] | Bacterial Biotransformation [14] | Bacterial Biotransformation [15] | Bacterial Biotransformation [16] | Bacterial Biotransformation [17] | Bacterial Biotransformation [18] | Bacterial Biotransformation [19] | Bacterial Biotransformation [20] |
| --- | --- | --- | --- | --- | --- | --- | --- | --- | --- | --- | --- | --- | --- | --- | --- | --- | --- | --- | --- | --- |
| C#C[C@]1(OC(C)=O)CC[C@H]2[C@@H]3CCC4=C[C@@H](OC(C)=O)CC[C@@H]4[C@H]3CC[C@@]21C [ETHYNODIOL DIACETATE] | Compound NOT metabolized | Compound metabolized | Compound metabolized | Compound metabolized | Compound metabolized | Compound metabolized | Compound metabolized | Compound metabolized | Compound metabolized | Compound metabolized | Compound metabolized | Compound metabolized | Compound metabolized | Compound metabolized | Compound metabolized | Compound metabolized | Compound metabolized | Compound metabolized | Compound metabolized | Compound metabolized |
| C=CC[C@@H]1/C=C(\C)C[C@H](C)C[C@H](OC)[C@H]2O[C@@](O)(C(=O)C(=O)N3CCCC[C@H]3C(=O)O[C@H](/C(C)=C/[C@@H]3CC[C@@H](O)[C@H](OC)C3)[C@H](C)[C@@H](O)CC1=O)[C@H](C)C[C@@H]2OC.O [TACROLIMUS] | Compound metabolized | Compound NOT metabolized | Compound NOT metabolized | Compound NOT metabolized | Compound NOT metabolized | Compound metabolized | Compound metabolized | Compound metabolized | Compound metabolized | Compound metabolized | Compound NOT metabolized | Compound metabolized | Compound metabolized | Compound metabolized | Compound metabolized | Compound metabolized | Compound NOT metabolized | Compound metabolized | Compound NOT metabolized | Compound metabolized |
| CCS(=O)(=O)CCn1c([N+](=O)[O-])cnc1C [TINIDAZOLE] | Compound NOT metabolized | Compound metabolized | Compound metabolized | Compound metabolized | Compound metabolized | Compound metabolized | Compound metabolized | Compound metabolized | Compound metabolized | Compound metabolized | Compound metabolized | Compound metabolized | – | Compound metabolized | Compound metabolized | Compound metabolized | Compound metabolized | Compound metabolized | Compound metabolized | Compound metabolized |
| CC1=C(CC(=O)O)c2cc(F)ccc2/C1=C\c1ccc([S+](C)[O-])cc1 (centres undefined) | Compound metabolized | Compound metabolized | Compound NOT metabolized | Compound NOT metabolized | Compound metabolized | Compound metabolized | Compound metabolized | Compound metabolized | Compound metabolized | Compound metabolized | Compound NOT metabolized | – | Compound metabolized | Compound metabolized | Compound metabolized | Compound metabolized | Compound metabolized | Compound NOT metabolized | Compound metabolized | Compound metabolized |
| C[C@]12C=CC(=O)C=C1CC[C@@H]1[C@@H]2C(=O)C[C@@]2(C)[C@H]1CC[C@]2(O)C(=O)CO [PREDNISONE] | Compound metabolized | Compound metabolized | Compound metabolized | Compound NOT metabolized | Compound metabolized | Compound metabolized | Compound metabolized | Compound metabolized | Compound metabolized | Compound metabolized | Compound NOT metabolized | – | Compound metabolized | Compound metabolized | Compound metabolized | Compound metabolized | Compound metabolized | Compound NOT metabolized | Compound metabolized | Compound metabolized |
| N#Cc1ccc2[nH]cc(CCCCN3CCN(c4ccc5oc(C(N)=O)cc5c4)CC3)c2c1 [VILAZODONE] | Compound metabolized | Compound metabolized | Compound metabolized | Compound metabolized | Compound metabolized | – | – | Compound metabolized | – | Compound metabolized | Compound metabolized | Compound metabolized | Compound metabolized | Compound metabolized | Compound metabolized | Compound metabolized | Compound metabolized | Compound metabolized | Compound metabolized | Compound metabolized |
